Source: patent publication US6677157B1, “Method of diagnosis of prostate cancer” (Uropath Pty Ltd., A.C.N., priority 1998, dated 2004)

Test system: mixed lymphocyte reaction
Assay: Effect of keratan sulphate on a mixed lymphocyte reaction
Assay type: cell-based
Conditions: 20 μg/ml
Procedure: The function of keratan sulphate in prostate tissue is unknown. It is known, however, that GAG compounds are important in the prevention of autoimmune bonne diseases (forms of arthritis). In order to determine whether keratan sulphate may have an immune regulatory effect it was assessed by intorducing it into a mixed lymphocyte reaction. […] At markedly diluted lymphocyte ratios of >270:1 no effect was evident (see FIG. 2).

**Q.** With keratan sulphate as the substance, how does the “reduction of mixed lymphocyte reaction” value (lymphocyte ratios of 10, 30 and 90:1) read?
**A.** The value was 50%.

**Q.** And the “effect on mixed lymphocyte reaction” value (markedly diluted lymphocyte ratios of >270:1)?
**A.** Its value is “no effect”.
